# ChEMBL document CHEMBL1201862, “PubChem BioAssay data set” (2004)
#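 Results reflect a 48-hour exposure of cells in 96-well plates to compound at five concentrations. GI50: concentration for 50% inhibition of growth.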 Activity calls are given as the source filed them. Rule as the data show it: active = GI50 up to about 1.1 µM and inactive = higher.
# How the values were obtained:
# Assay in all cases: growth of human tumour cells (NCI), 48 h
# UACC-257 = tested on: UACC-257
# DU-145 = tested on: DU-145
# UACC-62 = tested on: UACC-62
# HCT-15 = tested on: HCT-15
# NCI-H522 = tested on: NCI-H522
# OVCAR-3 = tested on: OVCAR-3
# SK-MEL-28 = tested on: SK-MEL-28
# HT-29 = tested on: HT-29
# NCI/ADR-RES = tested on: NCI/ADR-RES
# KM12 = tested on: KM12
# IGROV-1 = tested on: IGROV-1
# LOX IMVI = tested on: LOX IMVI
# MOLT-4 = tested on: MOLT-4
# BT-549 = tested on: BT-549
# NCI-H226 = tested on: NCI-H226
# SNB-19 = tested on: SNB-19
# NCI-H23 = tested on: NCI-H23
# UO-31 = tested on: UO-31
# PC-3 = tested on: PC-3
# Hs-578T = tested on: Hs-578T
# HCC 2998 = tested on: HCC 2998
# CCRF-CEM = tested on: CCRF-CEM
# HCT-116 = tested on: HCT-116
# EKVX = tested on: EKVX
# SN12C = tested on: SN12C
# SR = tested on: SR
# K562 = tested on: K562
# HL-60 = tested on: HL-60
# M14 = tested on: M14
# MCF7 = tested on: MCF7
# OVCAR-8 = tested on: OVCAR-8
# U-251 = tested on: U-251
# HOP-62 = tested on: HOP-62
# ACHN = tested on: ACHN
# 786-0 = tested on: 786-0
# SK-MEL-5 = tested on: SK-MEL-5
# A498 = tested on: A498
# SW-620 = tested on: SW-620
# SF-295 = tested on: SF-295
# COLO 205 = tested on: COLO 205
# OVCAR-4 = tested on: OVCAR-4
# HOP-92 = tested on: HOP-92
# SF-268 = tested on: SF-268
# SF-539 = tested on: SF-539
# T47D = tested on: T47D
# Malme-3M = tested on: Malme-3M
# A549 = tested on: A549
# MDA-MB-231 = tested on: MDA-MB-231
# CAKI-1 = tested on: CAKI-1
# SK-MEL-2 = tested on: SK-MEL-2
# RPMI-8226 = tested on: RPMI-8226
# SK-OV-3 = tested on: SK-OV-3
# TK-10 = tested on: TK-10
# MDA-N = tested on: MDA-N
# MDA-MB-435 = tested on: MDA-MB-435
# NCI-H460 = tested on: NCI-H460
# RXF 393 = tested on: RXF 393
# OVCAR-5 = tested on: OVCAR-5
# SNB-75 = tested on: SNB-75
smiles,measurement,setting,value
C=C1CCCC(C)(C)[C@H]1C/C=C1\CCOC1=O,GI50,UACC-257,12.1 µM (inactive)
same,GI50,DU-145,13.2 µM (inactive)
same,GI50,UACC-62,29.4 µM (inactive)
same,GI50,HCT-15,14.5 µM
same,GI50,NCI-H522,18 µM (inactive)
same,GI50,OVCAR-3,15 µM (inactive)
same,GI50,SK-MEL-28,16.1 µM (inactive)
same,GI50,HT-29,13.9 µM (inactive)
same,GI50,NCI/ADR-RES,10.5 µM (inactive)
same,GI50,KM12,17.9 µM (inactive)
same,GI50,IGROV-1,14.2 µM (inactive)
same,GI50,LOX IMVI,11.5 µM (inactive)
same,GI50,MOLT-4,10.6 µM (inactive)
same,GI50,BT-549,14 µM (inactive)
same,GI50,NCI-H226,9.89 µM (inactive)
same,GI50,SNB-19,16.8 µM (inactive)
same,GI50,NCI-H23,14.2 µM (inactive)
same,GI50,UO-31,16.1 µM (inactive)
same,GI50,PC-3,16.9 µM (inactive)
same,GI50,Hs-578T,16.9 µM (inactive)
same,GI50,HCC 2998,23.9 µM (inactive)
same,GI50,CCRF-CEM,21.6 µM (inactive)
same,GI50,HCT-116,12.6 µM (inactive)
same,GI50,EKVX,15.9 µM (inactive)
same,GI50,SN12C,18.2 µM (inactive)
same,GI50,SR,12.4 µM (inactive)
same,GI50,K562,11.9 µM (inactive)
same,GI50,HL-60,11.5 µM (inactive)
same,GI50,M14,17.5 µM (inactive)
same,GI50,MCF7,12.8 µM (inactive)
same,GI50,OVCAR-8,17.7 µM (inactive)
same,GI50,U-251,16.8 µM (inactive)
same,GI50,HOP-62,17.6 µM (inactive)
same,GI50,ACHN,15.7 µM (inactive)
same,GI50,786-0,14.7 µM (inactive)
same,GI50,SK-MEL-5,10.2 µM (inactive)
same,GI50,A498,17.2 µM (inactive)
same,GI50,SW-620,18.7 µM (inactive)
same,GI50,SF-295,17.1 µM (inactive)
same,GI50,COLO 205,19.3 µM (inactive)
same,GI50,OVCAR-4,11 µM (inactive)
same,GI50,HOP-92,12.1 µM (inactive)
same,GI50,SF-268,9.04 µM (inactive)
same,GI50,SF-539,17.2 µM (inactive)
same,GI50,T47D,54.2 µM (inactive)
same,GI50,Malme-3M,13.5 µM (inactive)
same,GI50,A549,13.7 µM (inactive)
same,GI50,MDA-MB-231,17.7 µM (inactive)
same,GI50,CAKI-1,16.6 µM (inactive)
same,GI50,SK-MEL-2,63.7 µM (inactive)
same,GI50,RPMI-8226,6.62 µM (inactive)
same,GI50,SK-OV-3,10.5 µM (inactive)
same,GI50,TK-10,19.5 µM (inactive)
same,GI50,MDA-N,17.9 µM (inactive)
same,GI50,MDA-MB-435,10.3 µM (inactive)
same,GI50,NCI-H460,11.8 µM (inactive)
NC(Cc1ccccc1)C(=O)OCN1C(=O)C2C3C=CC(C2C1=O)C1C(=O)N(COC(=O)C(N)Cc2ccccc2)C(=O)C31 (stereo not given),GI50,UACC-257,75.2 µM (inactive)
same,GI50,DU-145,> 100 µM (inactive)
same,GI50,UACC-62,38.8 µM (inactive)
same,GI50,HCT-15,27.4 µM
same,GI50,NCI-H522,> 100 µM (inactive)
same,GI50,OVCAR-3,> 100 µM (inactive)
same,GI50,SK-MEL-28,67.6 µM (inactive)
same,GI50,HT-29,18.4 µM (inactive)
same,GI50,NCI/ADR-RES,> 100 µM (inactive)
same,GI50,IGROV-1,> 100 µM (inactive)
same,GI50,LOX IMVI,22 µM (inactive)
same,GI50,MOLT-4,22.4 µM (inactive)
same,GI50,BT-549,> 100 µM (inactive)
same,GI50,NCI-H226,> 100 µM (inactive)
same,GI50,SNB-19,> 100 µM (inactive)
same,GI50,NCI-H23,66.2 µM (inactive)
same,GI50,UO-31,> 100 µM (inactive)
same,GI50,PC-3,> 100 µM (inactive)
same,GI50,Hs-578T,> 100 µM (inactive)
same,GI50,HCC 2998,> 100 µM (inactive)
same,GI50,CCRF-CEM,21.7 µM (inactive)
same,GI50,HCT-116,42.5 µM (inactive)
same,GI50,RXF 393,> 100 µM (inactive)
same,GI50,EKVX,> 100 µM (inactive)
same,GI50,SN12C,> 100 µM (inactive)
same,GI50,SR,24.4 µM (inactive)
same,GI50,K562,28.5 µM (inactive)
same,GI50,HL-60,17.4 µM (inactive)
same,GI50,M14,92 µM (inactive)
same,GI50,MCF7,17.5 µM (inactive)
same,GI50,OVCAR-5,> 100 µM (inactive)
same,GI50,OVCAR-8,> 100 µM (inactive)
same,GI50,U-251,> 100 µM (inactive)
same,GI50,HOP-62,> 100 µM (inactive)
same,GI50,ACHN,> 100 µM (inactive)
same,GI50,786-0,35.7 µM (inactive)
same,GI50,SK-MEL-5,49.8 µM (inactive)
same,GI50,SW-620,28.8 µM (inactive)
same,GI50,SF-295,> 100 µM (inactive)
same,GI50,COLO 205,75.9 µM (inactive)
same,GI50,SF-268,> 100 µM (inactive)
same,GI50,SF-539,> 100 µM (inactive)
same,GI50,T47D,> 100 µM (inactive)
same,GI50,Malme-3M,17.2 µM (inactive)
same,GI50,A549,> 100 µM (inactive)
same,GI50,MDA-MB-231,78 µM (inactive)
same,GI50,CAKI-1,> 100 µM (inactive)
same,GI50,SK-MEL-2,22.6 µM (inactive)
same,GI50,RPMI-8226,23.2 µM (inactive)
same,GI50,TK-10,> 100 µM (inactive)
same,GI50,MDA-N,> 100 µM (inactive)
same,GI50,MDA-MB-435,> 100 µM (inactive)
same,GI50,NCI-H460,67.9 µM (inactive)
C[C@@H](c1ccccc1)N1CN(C(=O)OCc2ccccc2)C(CO)C1=O (stereo not given in full),GI50,UACC-257,95.7 µM (inactive)
same,GI50,DU-145,> 100 µM (inactive)
same,GI50,UACC-62,> 100 µM (inactive)
same,GI50,HCT-15,> 100 µM
same,GI50,NCI-H522,> 100 µM (inactive)
same,GI50,OVCAR-3,> 100 µM (inactive)
same,GI50,SK-MEL-28,> 100 µM (inactive)
same,GI50,HT-29,70.3 µM (inactive)
same,GI50,NCI/ADR-RES,> 100 µM (inactive)
same,GI50,KM12,> 100 µM (inactive)
same,GI50,IGROV-1,> 100 µM (inactive)
same,GI50,LOX IMVI,> 100 µM (inactive)
same,GI50,MOLT-4,> 100 µM (inactive)
same,GI50,BT-549,> 100 µM (inactive)
same,GI50,NCI-H226,> 100 µM (inactive)
same,GI50,SNB-19,> 100 µM (inactive)
same,GI50,NCI-H23,> 100 µM (inactive)
same,GI50,PC-3,> 100 µM (inactive)
same,GI50,Hs-578T,> 100 µM (inactive)
same,GI50,HCC 2998,> 100 µM (inactive)
same,GI50,CCRF-CEM,67 µM (inactive)
same,GI50,HCT-116,> 100 µM (inactive)
same,GI50,RXF 393,61.1 µM (inactive)
same,GI50,EKVX,71.1 µM (inactive)
same,GI50,SN12C,> 100 µM (inactive)
same,GI50,SR,> 100 µM (inactive)
same,GI50,K562,84.5 µM (inactive)
same,GI50,HL-60,> 100 µM (inactive)
same,GI50,M14,> 100 µM (inactive)
same,GI50,MCF7,47.2 µM (inactive)
same,GI50,OVCAR-5,> 100 µM (inactive)
same,GI50,OVCAR-8,> 100 µM (inactive)
same,GI50,U-251,> 100 µM (inactive)
same,GI50,HOP-62,> 100 µM (inactive)
same,GI50,ACHN,> 100 µM (inactive)
same,GI50,786-0,> 100 µM (inactive)
same,GI50,SK-MEL-5,> 100 µM (inactive)
same,GI50,SW-620,> 100 µM (inactive)
same,GI50,SF-295,> 100 µM (inactive)
same,GI50,COLO 205,> 100 µM (inactive)
same,GI50,OVCAR-4,> 100 µM (inactive)
same,GI50,SF-268,> 100 µM (inactive)
same,GI50,SF-539,> 100 µM (inactive)
same,GI50,T47D,> 100 µM (inactive)
same,GI50,Malme-3M,> 100 µM (inactive)
same,GI50,A549,> 100 µM (inactive)
same,GI50,MDA-MB-231,87.3 µM (inactive)
same,GI50,CAKI-1,> 100 µM (inactive)
same,GI50,SK-MEL-2,> 100 µM (inactive)
same,GI50,RPMI-8226,93.1 µM (inactive)
same,GI50,SK-OV-3,> 100 µM (inactive)
same,GI50,TK-10,> 100 µM (inactive)
same,GI50,MDA-N,> 100 µM (inactive)
same,GI50,MDA-MB-435,> 100 µM (inactive)
same,GI50,SNB-75,> 100 µM (inactive)
same,GI50,NCI-H460,> 100 µM (inactive)
